Data set [1] in a line: Cell culture media unbound percentage and stability by rapid equilibrium dialysis (Example C). The class given is in vitro ADME. The note with it: bovine, cell assay medium (RPMI-1640 with 10% fetal bovine serum), pH 7.4, rapid equilibrium dialysis, 4 hours at 37° C., read-out: Cell Culture Media Binding (% unbound). The gist of the method:
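Compound spiked into cell culture medium at nominal 1 μM and dialysed against PBS (100 mM sodium phosphate + 150 mM NaCl, pH 7.4) by rapid equilibrium dialysis, triplicate, 4 h at 37° C with shaking. LC-MS/MS peak area ratios gave percent unbound (receiver/donor) and percent stability (240 min vs 0 min).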

The test system of data set [2] is SW48 human colorectal cancer cells. In words: Calculated free drug potency in SW48 cell assay, corrected with media free fraction (Example C). The data set is classed as cell-based. The note with it: Homo sapiens, SW48, SW48 pCC50 corrected with measured free fraction in cell assay media. The gist of the method: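 Compound spiked at nominal 1 μM into cell assay medium and dialysed against PBS (100 mM sodium phosphate, 150 mM NaCl, pH 7.4) by rapid equilibrium dialysis, 4 h, 37 °C, shaking. Percent unbound from LC-MS/MS peak area ratios (240 min vs 0 min); cell assay concentrations corrected by this free fraction.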

Data set [3] relates to SW48 human colorectal cancer cells (MSI-H cancer cells). Nature of the data set: SW48 cell viability, CellTiter-Glo, 120 hours (Example B). As to conditions: Homo sapiens. In general terms: ATP-based viability assays read luminescence as a measure of living cells.
Procedure: SW48 human colorectal cancer cells (MSI-H cancer cells) were obtained from the American Type Culture Collection and maintained in growth medium composed of RPMI-1640 supplemented with 10% fetal bovine serum. Cells were maintained in a humidified 5% CO2 incubator at 37° C. Cell dissociation was conducted using TrypLE Select to detach cells from culture flasks. Following dissociation, cells were centrifuged briefly and resuspended in assay medium RPMI-1640+10% fetal bovine serum. Black 384-well assay plates were prepared from source plates of DMSO and compounds dissolved in DMSO prior to cell dispensation. These source plates were prepared in eleven point, 3-fold serial dilutions from 10 mM stocks stored at 4° C. Compounds and DMSO controls were dispensed into assay plates at 150 nanoliters per well from source plates using Labcyte Echo 555 or Echo 655T dispensers with Column 6 and Column 18 containing DMSO only. Cells were then seeded into prepared assay plates in 50 microliters assay medium at 250 cells per well into Columns 1 thru 17 and Columns 19-24. Assay medium without cells was added to column 18 to serve as a surrogate for 100% cell cytotoxicity. Following incubation for 120 hours in a humidified 5% CO2 incubator at 37° C., cellular ATP concentration of each well was measured and used as a surrogate of cell viability. This was performed by adding 50 microliters of CellTiter-Glo reagent to each well followed by a 10-minute incubation at room temperature. Luminescence was measured on a Synergy Neo or Synergy Neo2 multimode plate reader. Compound cytotoxic response (% C) was normalized to the robust means of column 6 (Control 1, 0% Cytotoxicity) and column 18 (Control 2, 100% Cytotoxicity) and normalized % cytotoxicity (% C) calculated. % C=100−100*((Compound−Control 2)/(Control1−Control2)). These normalized data were then used to determine a 50% cytotoxic response (CC50) using 4-parameter logistic curve model 201 in Activity Base XE:
[formula] • where A=minimum asymptote (% cytotoxicity), B=maximum asymptote (% cytotoxicity), C=Log CC50 (pCC50), D=Hill slope, and x=[inhibitor], (M).
Data set [4] addresses T1, recombinant full-length WRN protein (1-1432) (Homo sapiens, UniProt Q14191).
T1 construct: recombinant full-length WRN protein (1-1432)
In words: WRN unwinding activity, fluorogenic 384-well assay (Example A). The data set is classed as biochemical. The note with it: WRN unwinding activity, 4 hr; Table 2; read-out: 4 hr UNW pIC50 (converted). The gist of the method: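 200 pM enzyme (2× stock) preincubated with compound 4 h at ambient temperature, then 200 μM ATP and 12 nM quenched TAMRA-labelled dsDNA (2× stocks) added for 60 min; EDTA-quenched. Buffer 25 mM Tris pH 8.0, 5 mM NaCl, 2 mM MgCl2. Fluorescence at 525/598 nm; pIC50 from four-parameter fit.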

The mark [5] stands for this setting: SW48, 120 h, read-out: SW48 pCC50, SW48 cell viability, 120 hours incubation (converted), Table 2.
Where [6] appears, read: SW48, read-out: SW48 pCC50, measured potency from Example B, as repeated in Table 3 (converted).

The structures appear in SMILES notation. Structures can show the parent of a compound that is named as a salt. Where two headings read alike, the source gives them in different places.

T1 sequence (Q14191 whole entry): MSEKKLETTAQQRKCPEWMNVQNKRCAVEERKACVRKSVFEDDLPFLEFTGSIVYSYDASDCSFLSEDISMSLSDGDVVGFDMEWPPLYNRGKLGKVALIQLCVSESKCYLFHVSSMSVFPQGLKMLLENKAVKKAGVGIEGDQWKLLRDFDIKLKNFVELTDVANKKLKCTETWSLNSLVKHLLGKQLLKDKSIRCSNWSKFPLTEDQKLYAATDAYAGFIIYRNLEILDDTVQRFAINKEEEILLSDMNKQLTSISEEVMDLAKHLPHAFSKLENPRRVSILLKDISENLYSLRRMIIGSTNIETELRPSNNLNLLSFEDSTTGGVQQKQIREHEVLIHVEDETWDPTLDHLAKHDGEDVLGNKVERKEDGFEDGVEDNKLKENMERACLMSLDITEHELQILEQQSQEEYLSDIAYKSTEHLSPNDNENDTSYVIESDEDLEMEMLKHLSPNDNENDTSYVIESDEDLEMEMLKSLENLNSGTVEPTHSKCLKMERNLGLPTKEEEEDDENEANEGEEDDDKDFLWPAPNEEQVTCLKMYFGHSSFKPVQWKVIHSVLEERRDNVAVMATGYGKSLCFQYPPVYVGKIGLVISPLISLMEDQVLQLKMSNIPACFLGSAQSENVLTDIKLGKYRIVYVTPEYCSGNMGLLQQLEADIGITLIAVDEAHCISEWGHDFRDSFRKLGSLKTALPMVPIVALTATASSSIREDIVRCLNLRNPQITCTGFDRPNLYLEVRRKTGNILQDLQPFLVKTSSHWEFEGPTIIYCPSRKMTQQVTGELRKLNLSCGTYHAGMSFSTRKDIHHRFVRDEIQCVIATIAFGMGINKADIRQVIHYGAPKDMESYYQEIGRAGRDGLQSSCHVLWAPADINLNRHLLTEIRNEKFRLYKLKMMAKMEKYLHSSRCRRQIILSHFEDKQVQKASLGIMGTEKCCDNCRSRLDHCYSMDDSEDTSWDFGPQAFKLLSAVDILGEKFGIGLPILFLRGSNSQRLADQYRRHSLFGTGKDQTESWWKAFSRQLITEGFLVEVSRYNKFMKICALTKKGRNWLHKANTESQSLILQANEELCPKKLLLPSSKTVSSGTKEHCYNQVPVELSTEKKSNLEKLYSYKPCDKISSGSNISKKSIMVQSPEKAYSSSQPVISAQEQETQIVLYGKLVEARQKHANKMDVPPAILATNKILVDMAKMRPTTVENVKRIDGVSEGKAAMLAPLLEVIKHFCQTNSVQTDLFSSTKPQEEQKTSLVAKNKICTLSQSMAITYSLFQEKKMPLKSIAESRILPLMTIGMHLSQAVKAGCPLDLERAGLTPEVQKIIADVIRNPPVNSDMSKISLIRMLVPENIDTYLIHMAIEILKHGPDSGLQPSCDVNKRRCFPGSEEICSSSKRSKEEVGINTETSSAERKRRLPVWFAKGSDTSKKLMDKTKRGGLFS

Turning to `Cc1nc2cc(S(=O)(=O)N(C)c3ccc([C@@H]4CCC[C@H](COc5ccc(C(F)(F)F)cc5)[C@H]4C(=O)O)cc3)cc([C@H]3CCCNC3)c2n1C` (stereo in doubt) [Example 208, rel-(1R,2R,6S)-2-((4-(trifluoromethyl)phenoxy)methyl)-6-(4-((N,1,2-trimethyl-7-((R)-piperidin-3-yl)-1H-benzo[d]imidazole)-5-sulfonamido)phenyl)cyclohexane-1-carboxylic acid, hydrochloride], the fraction unbound at 4 h, 1 µM in data set [1] came to 0.0289. In addition, the CC50 in data set [2] is 36.3 nM; in data set [3] (setting [5]) it was 1260 nM; in data set [3] (setting [6]) it was 1260 nM. Also, the IC50 in data set [4] was 1.58 nM.

For `Cc1nc2cc(S(=O)(=O)N(C)c3ccc([C@H]4C[C@@H](N(C)C)C[C@@H](C(=O)Nc5ccc(C(F)(F)F)cc5F)[C@@H]4C(=O)O)cc3)ccc2n1C` (stereo in doubt) [Example 251, rel-(1R,2R,4R,6S)-4-(dimethylamino)-2-((2-fluoro-4-(trifluoromethyl)phenyl)carbamoyl)-6-(4-((N,1,2-trimethyl-1H-benzo[d]imidazole)-5-sulfonamido)phenyl)cyclohexane-1-carboxylic acid], the fraction unbound at 4 h, 1 µM in data set [1] stood at 0.274. Besides, the CC50 is 138 nM in data set [2], 501 nM in data set [3] (setting [5]) and 501 nM in data set [3] (setting [6]). Further, the IC50 in data set [4] is 1 nM.

Turning to `Cc1nc2cc(S(=O)(=O)N(C)c3ccc([C@H]4C[C@@H](OC(F)F)C[C@@H](C(=O)Nc5ccc(C(F)(F)F)cc5F)[C@@H]4C(=O)O)cc3)ccc2n1C` (stereo in doubt) [Example 284, rel-(1R,2R,4R,6S)-4-(difluoromethoxy)-2-((2-fluoro-4-(trifluoromethyl)phenyl)carbamoyl)-6-(4-((N,1,2-trimethyl-1H-benzo[d]imidazole)-5-sulfonamido)phenyl)cyclohexane-1-carboxylic acid], in data set [1], the fraction unbound at 4 h, 1 µM stood at 0.068. For the same compound, the CC50 in data set [2] was 13.5 nM; in data set [3] (setting [5]), 200 nM; in data set [3] (setting [6]), 200 nM. Besides, the IC50 in data set [4] was 3.16 nM.

Turning to `CC(=O)N(C)[C@@H]1C[C@H](c2ccc(N(C)S(=O)(=O)c3ccc4c(c3)nc(C)n4C)cc2)[C@@H](C(=O)O)[C@H](C(=O)Nc2ccc(C(F)(F)F)cc2F)C1` (stereo in doubt) [Example 292, rel-(1R,2R,4R,6S)-2-((2-fluoro-4-(trifluoromethyl)phenyl)carbamoyl)-4-(N-methylacetamido)-6-(4-((N,1,2-trimethyl-1H-benzo[d]imidazole)-5-sulfonamido)phenyl)cyclohexane-1-carboxylic acid], the fraction unbound at 4 h, 1 µM in data set [1] is 0.223. In addition, the results for the CC50 in data set [2], in data set [3] (setting [5]) and in data set [3] (setting [6]) were 178 nM, 794 nM and 794 nM, respectively. Also, the IC50 in data set [4] was 1.58 nM.

Take `CC(=O)N(C)[C@H]1C[C@H](c2ccc(N(C)S(=O)(=O)c3ccc4c(c3)nc(C)n4C)cc2)[C@@H](C(=O)O)[C@H](C(=O)Nc2ccc(C(F)(F)F)cc2F)C1` (stereo in doubt) [Example 294, rel-(1R,2R,4S,6S)-2-((2-fluoro-4-(trifluoromethyl)phenyl)carbamoyl)-4-(N-methylacetamido)-6-(4-((N,1,2-trimethyl-1H-benzo[d]imidazole)-5-sulfonamido)phenyl)cyclohexane-1-carboxylic acid]: the fraction unbound at 4 h, 1 µM in data set [1] turned out to be 0.256. The results for the CC50 in data set [2], in data set [3] (setting [5]) and in data set [3] (setting [6]) were 1620 nM, 6310 nM and 6310 nM, respectively. The IC50 in data set [4] is 1.58 nM.

As for `Cc1nc2cc(S(=O)(=O)N(C)c3ccc([C@H]4C[C@@H](N)C[C@@H](C(=O)Nc5ccc(C(F)(F)F)cc5F)[C@@H]4C(=O)O)cc3)ccc2n1C` (stereo in doubt) [Example 301, rel-(1R,2R,4R,6S)-4-amino-2-((2-fluoro-4-(trifluoromethyl)phenyl)carbamoyl)-6-(4-((N,1,2-trimethyl-1H-benzo[d]imidazole)-5-sulfonamido)phenyl)cyclohexane-1-carboxylic acid], the fraction unbound at 4 h, 1 µM in data set [1] came out at 0.406. Also, the CC50 is 1620 nM in data set [2], 3980 nM in data set [3] (setting [5]) and 3980 nM in data set [3] (setting [6]). Also, in data set [4], the IC50 is 1.58 nM.

As for `CC(=O)N1C[C@H](c2ccc(N(C)S(=O)(=O)c3ccc4c(c3)nc(C)n4C)cc2)[C@@H](C(=O)O)[C@H](C(=O)Nc2ccc(C(F)(F)F)cc2F)C1` (stereo in doubt) [Example 310, rel-(3R,4S,5R)-1-acetyl-3-((2-fluoro-4-(trifluoromethyl)phenyl)carbamoyl)-5-(4-((N,1,2-trimethyl-1H-benzo[d]imidazole)-5-sulfonamido)phenyl)piperidine-4-carboxylic acid], the fraction unbound at 4 h, 1 µM in data set [1] is 0.273. Besides, the CC50 in data set [2] was 437 nM; in data set [3] (setting [5]), 1580 nM; in data set [3] (setting [6]), 1580 nM. In addition, the IC50 in data set [4] was 1.58 nM.

Regarding `Cc1nc2cc(S(=O)(=O)N(C)c3ccc([C@H]4C[C@@H](OC(C)C)C[C@@H](C(=O)Nc5ccc(C(F)(F)F)cc5F)[C@@H]4C(=O)O)cc3)ccc2n1C` (stereo in doubt) [Example 311, rel-(1R,2R,4R,6S)-2-((2-fluoro-4-(trifluoromethyl)phenyl)carbamoyl)-4-isopropoxy-6-(4-((N,1,2-trimethyl-1H-benzo[d]imidazole)-5-sulfonamido)phenyl)cyclohexane-1-carboxylic acid], in data set [1], the fraction unbound at 4 h, 1 µM was 0.0856. Also, the values for the CC50 in data set [2], in data set [3] (setting [5]) and in data set [3] (setting [6]) were 21.4 nM, 251 nM and 251 nM, respectively. Also, the IC50 in data set [4] was 2.51 nM.

With `Cc1nc2cc(S(=O)(=O)N(C)c3ccc([C@H]4C[C@@H](OCC5CC5)C[C@@H](C(=O)Nc5ccc(C(F)(F)F)cc5F)[C@@H]4C(=O)O)cc3)ccc2n1C` (stereo in doubt) [Example 314, rel-(1R,2R,4R,6S)-4-(cyclopropylmethoxy)-2-((2-fluoro-4-(trifluoromethyl)phenyl)carbamoyl)-6-(4-((N,1,2-trimethyl-1H-benzo[d]imidazole)-5-sulfonamido)phenyl)cyclohexane-1-carboxylic acid], the fraction unbound at 4 h, 1 µM in data set [1] is 0.0795. In addition, the results for the CC50 in data set [2], in data set [3] (setting [5]) and in data set [3] (setting [6]) were 12.6 nM, 158 nM and 158 nM, respectively. Also, the IC50 in data set [4] was 1.58 nM.

Turning to `COCCO[C@@H]1C[C@H](C(=O)Nc2ccc(C(F)(F)F)cc2F)[C@@H](C(=O)O)[C@H](c2ccc(N(C)S(=O)(=O)c3ccc4c(c3)nc(C)n4C)cc2)C1` (stereo in doubt) [Example 315, rel-(1R,2R,4R,6S)-2-((2-fluoro-4-(trifluoromethyl)phenyl)carbamoyl)-4-(2-methoxyethoxy)-6-(4-((N,1,2-trimethyl-1H-benzo[d]imidazole)-5-sulfonamido)phenyl)cyclohexane-1-carboxylic acid], the fraction unbound at 4 h, 1 µM in data set [1] worked out at 0.384. In addition, the CC50 is 3800 nM in data set [2] and 10000 nM in data set [3] (setting [5]). Moreover, the IC50 in data set [4] is 63.1 nM.

Regarding `COCCO[C@@H]1C[C@H](c2ccc(N(C)S(=O)(=O)c3ccc4c(c3)nc(C)n4C)cc2)[C@@H](C(=O)O)[C@H](C(=O)Nc2ccc(C(F)(F)F)cc2F)C1` (stereo in doubt) [Example 316, rel-(1R,2R,4R,6S)-2-((2-fluoro-4-(trifluoromethyl)phenyl)carbamoyl)-4-(2-methoxyethoxy)-6-(4-((N,1,2-trimethyl-1H-benzo[d]imidazole)-5-sulfonamido)phenyl)cyclohexane-1-carboxylic acid], the fraction unbound at 4 h, 1 µM in data set [1] worked out at 0.19. Also, the CC50 was 30.2 nM in data set [2], 158 nM in data set [3] (setting [5]) and 158 nM in data set [3] (setting [6]). In addition, in data set [4], the IC50 is 1.58 nM.

In the case of `Cc1nc2cc(S(=O)(=O)N(C)c3ccc([C@H]4C[C@@H](OC[C@H]5CCOC5)C[C@@H](C(=O)Nc5ccc(C(F)(F)F)cc5F)[C@@H]4C(=O)O)cc3)ccc2n1C` (stereo in doubt) [Example 317, (1R*,2R*,4R*,6S*)-2-((2-fluoro-4-(trifluoromethyl)phenyl)carbamoyl)-4-(((S)-tetrahydrofuran-3-yl)methoxy)-6-(4-((N,1,2-trimethyl-1H-benzo[d]imidazole)-5-sulfonamido)phenyl)cyclohexane-1-carboxylic acid], the fraction unbound at 4 h, 1 µM in data set [1] came out at 0.15. Besides, the CC50 was 12 nM in data set [2], 79.4 nM in data set [3] (setting [5]) and 79.4 nM in data set [3] (setting [6]). Further, in data set [4], the IC50 is 1.58 nM.

The record behind these values is patent US12662451B2, “Chemical compounds and uses thereof” (GLAXOSMITHKLINE INTELLECTUAL PROPERTY (NO.4) LIMITED, priority 2023, dated 2026).
